Laboratory results from ChEMBL document CHEMBL1127155, “Synthesis and antiviral activity of 9-(phosphonoalkylnyloxy)purines: Novel acyclonucleotides” (Bioorg Med Chem Lett, 1993).
≈ marks a conversion by molar mass, not a printed value.

Tests used:
Cytomegalovirus [1] = assay: Tested for its effect on replication of cytomegalovirus (CMV) at the dose up to 100 ug/mL; NE: No effect on replication.; assay type: functional, organism-based
MRC5 = assay: Tested for inhibition of DNA synthesis in MRC-5 cells; assay type: functional, cell-based; conditions: Homo sapiens
Human alphaherpesvirus 1 [2] = assay: Tested for its effect on replication of herpes simplex type-1 (HSV-1) at the dose up to 100 ug/mL; NE: No effect on replication; assay type: functional, organism-based
Human alphaherpesvirus 2 [3] = assay: Tested for the concentration at which compound showed activity against replication of herpes simplex type-2 (HSV-2); assay type: functional, organism-based
Cytomegalovirus [4] = assay: Tested for its effect on replication of cytomegalovirus (CMV) at the dose up to 100 ug/mL; NE: No effect on replication; assay type: functional, organism-based
Human alphaherpesvirus 1 [5] = assay: Tested for the concentration at which compound showed activity against its effect on replication of herpes simplex type-1 (HSV-1); assay type: functional, organism-based
Human alphaherpesvirus 2 [6] = assay: Tested for the concentration at which compound showed activity against its effect on replication of herpes simplex type-2 (HSV-2); assay type: functional, organism-based
Human alphaherpesvirus 1 [7] = assay: Tested for concentration at which cytotoxicity was observed in herpes simplex type-1 (HSV-1); assay type: functional
Cytomegalovirus [8] = assay: Tested for the concentration at which compound showed activity against its effect on replication of Cytomegalovirus; assay type: functional, organism-based; conditions: Human betaherpesvirus 5
Human alphaherpesvirus 3 = assay: Tested for the concentration at which compound showed activity against its effect on replication of varicella zoster virus; assay type: functional, organism-based

Q: `Nc1ncnc2c1ncn2OCC#CP(=O)(O)O` was tested. Which Activity (Cytomegalovirus [1]) did it give?
A: No effect

Q: What about the IC50 (MRC5) of the same compound?
A: 98 µg/mL (≈ 364 µM)

Q: And the Activity (Human alphaherpesvirus 1 [2])?
A: No effect

Q: And the IC50 (Human alphaherpesvirus 2 [3])?
A: 14 µg/mL (≈ 52 µM)

Q: How did the Activity (Cytomegalovirus [4]) turn out when `Nc1nc(O)c2ncn(OCC/C(=C/Cl)P(=O)(O)O)c2n1` was run?
A: No effect

Q: What about the IC50 (MRC5) of the same compound?
A: 17 µg/mL (≈ 50.6 µM)

Q: What about the Activity (Human alphaherpesvirus 1 [2]) of the same compound?
A: No effect

Q: What about the IC50 (Human alphaherpesvirus 2 [3]) of the same compound?
A: 25 µg/mL (≈ 74.5 µM)

Q: For `Nc1nc(O)c2ncn(OCC#CP(=O)(O)O)c2n1`, which IC50 (Human alphaherpesvirus 1 [5]) is on record?
A: 6.5 µg/mL (≈ 22.8 µM)

Q: What about the IC50 (Human alphaherpesvirus 2 [6]) of the same compound?
A: 3.9 µg/mL (≈ 13.7 µM)

Q: What about the IC50 (MRC5) of the same compound?
A: 4.2 µg/mL (≈ 14.7 µM)

Q: And the Dose (Human alphaherpesvirus 1 [7])?
A: 30 µg/mL

Q: What about the IC50 (Cytomegalovirus [8]) of the same compound?
A: 3.8 µg/mL (≈ 13.3 µM)

Q: And the IC50 (Human alphaherpesvirus 3)?
A: 3.2 µg/mL (≈ 11.2 µM)
